pIC50: −log10 of the molar value.
Experiments:
Format in all cases: cell-based
[1] = tested on: SCC15 head and neck squamous cell carcinoma cells; test: Cell growth inhibition (CellTiter-Glo), SCC15; details: Homo sapiens, SCC-15, 72 h, 3 days
Description: (§1) Esophageal carcinoma cell line OE33 was purchased from ECACC European Collection of Cell Cultures (UK). Breast cancer cell line JIMT-1 and gastric carcinoma cell line MKN-45 were purchased from Deutsche Sammlung von Mikroorganismen and Zellkulturen GmbH (Germany); KPL-4, a human breast cancer cell line was kindly provided by Prof. J Kurebayashi (Kawasaki Medical School, Kurashiki, Japan). […] The LICR-LON-HN5 head and neck carcinoma cell line (HN5) was a gift from the Institute of Cancer Research, Surrey, U.K. HN5C12 was developed by single-cell cloning of HN5 followed by exposure to increasing concentrations of lapatinib. […] Cell growth inhibition was determined via CellTiter-Glo cell viability assays. […] BT474-J4 and HN5C12 were washed with PBS and plated in their culture media without lapatinib. […] ATP levels were determined by adding Cell Titer Glo0 (Promega), incubating for 20 minutes then the luminescent signal was read on the SpectraMax M5 plate with a 0.5 second integration time. Cell growth was calculated relative to vehicle (DMSO) treated control wells. […] Excess Over Highest Single Agent (EOHSA) is defined as a statistically significant improvement in the combination compared to the component monotherapies. […] Analysis was conducted using two-factor analysis of variance with interaction (model terms were dose of drug A, dose of drug B, and interaction between doses of drug A and B), followed by linear contrasts between each combination group and corresponding monotherapies. Analysis was conducted using SAS (version 9, provided by SAS Institute, Cary, N.C.). EOHSA at each dose was calculated as the minimum difference in average % inhibition between the combination and each monotherapy, from the appropriate ANOVA contrast. Since there are many comparisons for the % inhibition endpoint, p-value adjustment for multiple comparisons was performed. Hommel's procedure was implemented in order to improve the power while retaining […] Error Rate (FWE) control by using a sequentially rejective method. The p-values for both synergy and antagonism were calculated using this adjustment.

[2] = tested on: KPL-4 breast cancer cells; test: Cell growth inhibition (CellTiter-Glo), KPL-4; details: Homo sapiens, KPL4, 72 h, 3 days
Description: (§2) Esophageal carcinoma cell line OE33 was purchased from ECACC European Collection of Cell Cultures (UK). Breast cancer cell line JIMT-1 and gastric carcinoma cell line MKN-45 were purchased from Deutsche Sammlung von Mikroorganismen and Zellkulturen GmbH (Germany); KPL-4, a human breast cancer cell line was kindly provided by Prof. J Kurebayashi (Kawasaki Medical School, Kurashiki, Japan). […] The LICR-LON-HN5 head and neck carcinoma cell line (HN5) was a gift from the Institute of Cancer Research, Surrey, U.K. HN5C12 was developed by single-cell cloning of HN5 followed by exposure to increasing concentrations of lapatinib. […] Cell growth inhibition was determined via CellTiter-Glo cell viability assays. […] BT474-J4 and HN5C12 were washed with PBS and plated in their culture media without lapatinib. […] ATP levels were determined by adding Cell Titer Glo0 (Promega), incubating for 20 minutes then the luminescent signal was read on the SpectraMax M5 plate with a 0.5 second integration time. Cell growth was calculated relative to vehicle (DMSO) treated control wells. […] y=([…]) where A is the minimum response (ymin), B is the maximum response (ymax), c is the inflection point of the curve (EC50), d is the Hill coefficient, and x is the log10 compound concentration (moles/L). CI values were calculated with the interpolated IC50 values and the mutually non-exclusive equation derived by Chou and […](a)+Db/IC50(b)+(Da×Db)/(IC50(a)×IC50(b)) where IC50(a) is the IC50 of the inhibitor A; IC50(b) is the IC50 for the inhibitor B; […] Excess Over Highest Single Agent (EOHSA) is defined as a statistically significant improvement in the combination compared to the component monotherapies. […] See Borisy et al. (2003) or Hung et al. (1993) for examples and discussion. Analysis was conducted using two-factor analysis of variance with interaction (model terms were dose of drug A, dose of drug B, and interaction between doses of drug A and B), followed by linear contrasts between each combination group and corresponding monotherapies. Analysis was conducted using SAS (version 9, provided by SAS Institute, Cary, N.C.). EOHSA at each dose was calculated as the minimum difference in average % inhibition between the combination and each monotherapy, from the appropriate ANOVA contrast. Since there are many comparisons for the % inhibition endpoint, p-value adjustment for multiple comparisons was performed. Hommel's procedure was implemented in order to improve the power while retaining […] Error Rate (FWE) control by using a sequentially rejective method. The p-values for both synergy and antagonism were calculated using this adjustment.

[3] = tested on: NCI-H441 lung carcinoma cells; test: Cell growth inhibition (CellTiter-Glo), NCI-H441; details: Homo sapiens, NCI-H441, 72 h, 3 days
[4] = tested on: NCI-H596 lung carcinoma cells; test: Cell growth inhibition (CellTiter-Glo), NCI-H596; details: Homo sapiens, NCI-H596, 72 h, 3 days
Description: as §2

[5] = tested on: HN5C12 (HN5C2) lapatinib resistant head and neck carcinoma cells; test: Cell growth inhibition (CellTiter-Glo), HN5C12; details: Homo sapiens, 72 h, 3 days
Description: as §2

[6] = tested on: NCI-H1648 lung carcinoma cells; test: Cell growth inhibition (CellTiter-Glo), NCI-H1648; details: Homo sapiens, NCI-H1648, 72 h, 3 days
Description: as §1

[7] = tested on: HN5 head and neck carcinoma cells; test: Cell growth inhibition (CellTiter-Glo), HN5; details: Homo sapiens, 72 h, 3 days
Description: as §2

[8] = tested on: NCI-H69 lung carcinoma cells; test: Cell growth inhibition (CellTiter-Glo), NCI-H69; details: Homo sapiens, NCI-H69, 72 h, 3 days
Description: as §2

[9] = tested on: Detroit 562 head and neck squamous cell carcinoma cells; test: Cell growth inhibition (CellTiter-Glo), Detroit 562; details: Homo sapiens, Detroit 562, 72 h, 3 days
Description: as §2

[10] = tested on: NCI-H2170 lung carcinoma cells; test: Cell growth inhibition (CellTiter-Glo), NCI-H2170; details: Homo sapiens, NCI-H2170, 72 h, 3 days
Description: as §2

| pIC50 ([1]; hn_SCC15, +HGF (2 ng/mL)) | pIC50 ([1]; hn_SCC15, −HGF) | pIC50 ([2]; breast_KPL4, +HGF (2 ng/mL)) | pIC50 ([2]; breast_KPL4, −HGF) | pIC50 ([3]; lung_H441, +HGF (2 ng/mL)) | pIC50 ([3]; lung_H441, −HGF) | pIC50 ([4]; lung_H596, +HGF (2 ng/mL)) | pIC50 ([4]; lung_H596, −HGF) | pIC50 ([5]; hn_HN5C2, +HGF (2 ng/mL)) | pIC50 ([5]; hn_HN5C2, −HGF) | pIC50 ([6]; lung_H1648, +HGF (2 ng/mL)) | pIC50 ([6]; lung_H1648, −HGF) | pIC50 ([7]; hn_HN5, +HGF (2 ng/mL)) | pIC50 ([7]; hn_HN5, −HGF) | pIC50 ([8]; lung_H69, +HGF (2 ng/mL)) | pIC50 ([8]; lung_H69, −HGF) | pIC50 ([9]; hn_Detroit562, +HGF (2 ng/mL)) | pIC50 ([9]; hn_Detroit562, −HGF) | pIC50 ([10]; lung_H2170, +HGF (2 ng/mL)) | pIC50 ([10]; lung_H2170, −HGF) | SMILES |
| --- | --- | --- | --- | --- | --- | --- | --- | --- | --- | --- | --- | --- | --- | --- | --- | --- | --- | --- | --- | --- |
| 5.11 | 5.79 | < 5.00 | < 5.00 | < 5.00 | < 5.00 | < 5.00 | < 5.00 | < 5.00 | < 5.00 | < 5.00 | < 5.00 | < 5.00 | 5.17 | < 5.00 | < 5.00 | < 5.00 | < 5.00 | 5.11 | 5.89 | C#Cc1cccc(Nc2ncnc3cc(OCCOC)c(OCCOC)cc23)c1 [Erlotinib, N-(3-ethynylphenyl)-6,7-bis{[2-(methyloxy)ethyl]oxy}-4-quinazolinamine] |
| 5.42 | 5.97 | 6.05 | 6.00 | < 5.00 | < 5.00 | < 5.00 | < 5.00 | 5.41 | 5.39 | < 5.00 | 5.13 | 5.43 | 5.63 | 5.32 | 5.27 | 5.33 | 5.40 | 5.37 | 6.59 | CS(=O)(=O)CCNCc1ccc(-c2ccc3ncnc(Nc4ccc(OCc5cccc(F)c5)c(Cl)c4)c3c2)o1 [Lapatinib, N-(3-chloro-4-{[(3-fluorophenyl)methyl]oxy}phenyl)-6-[5-({[2-(methylsulfonyl)ethyl]amino}methyl)-2-furanyl]-4-quinazolinamine] |

Source: US20130150363A1, “Method of Treating Cancer Using a cMET and AXL Inhibitor and an ErbB Inhibitor” (GlaxoSmithKline, priority 2008, published 2013)
